{"source": "patent US8623392B2", "about": "“Allergen inactivating agent” (priority 2007, dated 2014)", "key": {"freeze-dried Cry j1": {"molecular_target": "T1, freeze-dried Cry j1 (Cryptomeria japonica, UniProt P18632)", "T1 construct": "purchased Hayashibara Biochemical Labs., Inc", "T1 sequence (P18632 22-374)": "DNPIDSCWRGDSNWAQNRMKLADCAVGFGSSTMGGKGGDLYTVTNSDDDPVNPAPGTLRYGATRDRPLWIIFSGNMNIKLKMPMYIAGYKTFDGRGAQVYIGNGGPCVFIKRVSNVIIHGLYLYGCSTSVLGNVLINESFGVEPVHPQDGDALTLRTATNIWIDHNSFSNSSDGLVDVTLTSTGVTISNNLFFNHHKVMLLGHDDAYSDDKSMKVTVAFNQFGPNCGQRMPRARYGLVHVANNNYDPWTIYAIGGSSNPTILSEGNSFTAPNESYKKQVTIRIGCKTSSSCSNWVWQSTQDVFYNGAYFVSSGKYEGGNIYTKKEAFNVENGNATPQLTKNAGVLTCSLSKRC", "assay": "ELISA of freeze-dried Cry j1 after exposure to chlorine dioxide gas in 100 L-Tedlar bag", "type": "biochemical, Japanese cedar", "details": "24 hours", "experimental": "(§1) The purified Cry j1 which had been freeze-dried was reacted with chlorine dioxide gas having an average concentration of 0.08 ppm for 24 hours, and measurement was made using ELISA. As a result, 0.08 ppm of chlorine dioxide gas reduced the antigenicity of Cry j1, as compared with the case of air as a control. […] The details will be described below.\nIn order to examine effect of the chlorine dioxide gas on the freeze-dried Cry j1, […] of the purified Cry j1 adjusted with PBS to the concentration of 10 μg/ml was placed in a […], frozen at −30° C., and freeze-dried overnight using a suction desiccator.\nThe humidity was controlled using agar, and the generated chlorine dioxide solution was introduced using a syringe into a 100 L-Tedlar bag, so that the concentration therein becomes 0.1 ppm, and air inside the bag was agitated using a crisscross rotor wherein outer diameter of 60 mm×height of 17 mm. Likewise, a bag into which distilled water was introduced was used as a control. The bag was left in an environment of 24° C., and the chlorine dioxide gas concentration inside the bag was measured using a chlorine dioxide gas measuring instrument (Model 4330-SP, Interscan Corporation; measurement range 0 to 1,000 ppb), and when the value was below 0.1 ppm, the generated chlorine dioxide solution was further added to make adjustment. […]"}, "freeze-dried Der fII": {"molecular_target": "T2, freeze-dried Der fII (Dermatophagoides farinae, UniProt Q00855)", "T2 sequence (Q00855 18-146)": "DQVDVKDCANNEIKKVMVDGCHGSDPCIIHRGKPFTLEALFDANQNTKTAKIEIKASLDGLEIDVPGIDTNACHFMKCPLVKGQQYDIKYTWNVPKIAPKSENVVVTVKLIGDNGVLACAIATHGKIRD", "assay": "ELISA of freeze-dried Der fII after exposure to chlorine dioxide gas in 100 L-Tedlar bag", "type": "biochemical, mite", "details": "24 hours", "experimental": "as §1, with “Der fII” for “Cry j1”, “a” for “an average”, “0.1” for “0.08”, “Der fII,” for “Cry j1,”\nIn order to examine effect of the chlorine dioxide gas on the freeze-dried Der fII, 10 μl of the purified Der fII adjusted with PBS to the concentration of 10 μg/ml was placed in a 0.2-mL tube, frozen at −30° C., and freeze-dried overnight using a suction desiccator.\nThe humidity was controlled by a saturated salt method. Inside a Futon bag, a Tupperware containing salt or water therein was placed so as to obtain a target humidity, and next day, inside the bag, a 100 L-Tedlar bag containing the freeze-dried Der fII and a hygrometer was placed. A Tedlar bag into which chlorine dioxide was introduced was light-shielded with aluminum foil. […] The bag was left in an environment of 24° C., and the chlorine dioxide gas concentration inside bag was measured using a chlorine dioxide detector tube (No. 23M having a measurement range of 0.1 to 10 ppm, No. 23L having a measurement range of 0.025 to 1.2 ppm, GASTEC Corporation), and when the value was below 0.1 ppm, the generated chlorine dioxide gas was further added to make adjustment. […]"}}, "note": "“Also recorded” adds a separate entry of the source."}
{"molecule": "[O][Cl+][O-]", "note": "[chlorine dioxide gas, chlorine dioxide]", "values": [{"measurement": "antigenicity of freeze-dried Cry j1 at higher relative humidity", "setting": "freeze-dried Cry j1; chlorine dioxide gas 0.1 ppm (average 0.08 ppm), humidity increased", "result": "further reduced; also recorded: reduced to a larger degree"}, {"measurement": "antigenicity of freeze-dried Cry j1", "setting": "freeze-dried Cry j1; chlorine dioxide gas 0.1 ppm set, 0.08 ppm (80 ppb) on average, 24° C., compared with air control", "result": "remarkably reduced"}, {"measurement": "antigenicity of freeze-dried Der fII", "setting": "freeze-dried Der fII; chlorine dioxide gas 0.1 ppm (0.09 ppm on average), 24° C., compared with air control", "result": "remarkably reduced"}, {"measurement": "antigenicity of freeze-dried Der fII at higher relative humidity", "setting": "freeze-dried Der fII; chlorine dioxide gas 0.1 ppm, humidity increased", "result": "reduced to a larger degree; also recorded: further reduced"}]}
